Assay results published in ChEMBL document CHEMBL1201862, “PubChem BioAssay data set” (2004).
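These data come from cells grown in 96-well plates and exposed to compound for 48 hours at five concentrations. The concentration for 50% growth inhibition is given as GI50.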 Activity calls are given as the source filed them. No stated cut-off is given here; in the data, active = GI50 up to about 1.1 µM and inactive = higher.

What was measured:
Experiment in all cases: DTP human tumour cell line panel, 48 h
SF-268 = test system: SF-268
SF-539 = test system: SF-539
SF-295 = test system: SF-295
NCI-H522 = test system: NCI-H522
NCI-H226 = test system: NCI-H226
SK-MEL-28 = test system: SK-MEL-28
DMS-114 = test system: DMS-114
HL-60 = test system: HL-60
SNB-19 = test system: SNB-19
NCI-H460 = test system: NCI-H460
DLD-1 = test system: DLD-1
HT-29 = test system: HT-29
M14 = test system: M14
RPMI-8226 = test system: RPMI-8226
786-0 = test system: 786-0
RXF 631 = test system: RXF 631
UACC-257 = test system: UACC-257
SNB-78 = test system: SNB-78
SK-OV-3 = test system: SK-OV-3
OVCAR-5 = test system: OVCAR-5
LXFL 529 = test system: LXFL 529
HCT-116 = test system: HCT-116
TK-10 = test system: TK-10
U-251 = test system: U-251
ACHN = test system: ACHN
M19-MEL = test system: M19-MEL
KM12 = test system: KM12
K562 = test system: K562
OVCAR-8 = test system: OVCAR-8
HOP-62 = test system: HOP-62
SK-MEL-2 = test system: SK-MEL-2
KM-20L2 = test system: KM-20L2
CCRF-CEM = test system: CCRF-CEM
SN12C = test system: SN12C
EKVX = test system: EKVX
HCT-15 = test system: HCT-15
A549 = test system: A549
MOLT-4 = test system: MOLT-4
A498 = test system: A498
NCI-H23 = test system: NCI-H23
RXF 393 = test system: RXF 393
HCC 2998 = test system: HCC 2998
UO-31 = test system: UO-31
Malme-3M = test system: Malme-3M
SW-620 = test system: SW-620
SR = test system: SR
SNB-75 = test system: SNB-75
COLO 205 = test system: COLO 205
IGROV-1 = test system: IGROV-1
UACC-62 = test system: UACC-62
OVCAR-4 = test system: OVCAR-4
OVCAR-3 = test system: OVCAR-3
DMS-273 = test system: DMS-273
HOP-92 = test system: HOP-92
CAKI-1 = test system: CAKI-1
XF498 = test system: XF498
SK-MEL-5 = test system: SK-MEL-5
LOX IMVI = test system: LOX IMVI

SMILES: O=C(CC1(O)C(=O)Nc2ccc(Br)cc21)c1ccc(Cl)cc1Cl (stereo unspecified)
- GI50 (SF-268): 50.1 µM (inactive)
- GI50 (SF-539): 45.5 µM (inactive)
- GI50 (SF-295): 64.7 µM (inactive)
- GI50 (NCI-H522): 25.1 µM (inactive)
- GI50 (NCI-H226): 39.4 µM (inactive)
- GI50 (SK-MEL-28): 44 µM (inactive)
- GI50 (DMS-114): 20.9 µM (inactive)
- GI50 (HL-60): 19.1 µM (inactive)
- GI50 (SNB-19): > 100 µM (inactive)
- GI50 (NCI-H460): 49.8 µM (inactive)
- GI50 (DLD-1): 47.1 µM (inactive)
- GI50 (HT-29): 38.3 µM (inactive)
- GI50 (M14): 34.8 µM (inactive)
- GI50 (RPMI-8226): 22.1 µM (inactive)
- GI50 (786-0): 87.1 µM (inactive)
- GI50 (RXF 631): 43.9 µM (inactive)
- GI50 (UACC-257): 30.9 µM (inactive)
- GI50 (SNB-78): 37.8 µM (inactive)
- GI50 (SK-OV-3): 79.1 µM (inactive)
- GI50 (OVCAR-5): > 100 µM (inactive)
- GI50 (LXFL 529): 32.4 µM (inactive)
- GI50 (HCT-116): 31.8 µM (inactive)
- GI50 (TK-10): 56.2 µM (inactive)
- GI50 (U-251): 49.2 µM (inactive)
- GI50 (ACHN): 60.1 µM (inactive)
- GI50 (M19-MEL): 14.9 µM (inactive)
- GI50 (KM12): 52.6 µM (inactive)
- GI50 (K562): 39.6 µM (inactive)
- GI50 (OVCAR-8): 47.9 µM (inactive)
- GI50 (HOP-62): 83.6 µM (inactive)
- GI50 (SK-MEL-2): 31.7 µM (inactive)
- GI50 (KM-20L2): > 100 µM (inactive)
- GI50 (CCRF-CEM): 20.2 µM (inactive)
- GI50 (SN12C): 35.6 µM (inactive)
- GI50 (EKVX): > 100 µM (inactive)
- GI50 (HCT-15): 69 µM
- GI50 (A549): 92 µM (inactive)
- GI50 (MOLT-4): 26.3 µM (inactive)
- GI50 (A498): > 100 µM (inactive)
- GI50 (NCI-H23): 53.2 µM (inactive)
- GI50 (RXF 393): 91.6 µM (inactive)
- GI50 (HCC 2998): 91.8 µM (inactive)
- GI50 (UO-31): > 100 µM (inactive)
- GI50 (Malme-3M): 63.7 µM (inactive)
- GI50 (SW-620): 37.1 µM (inactive)
- GI50 (SR): 23.7 µM (inactive)
- GI50 (SNB-75): 38 µM (inactive)
- GI50 (COLO 205): 65.5 µM (inactive)
- GI50 (IGROV-1): 51.4 µM (inactive)
- GI50 (UACC-62): 17.2 µM (inactive)
- GI50 (OVCAR-4): 36.1 µM (inactive)
- GI50 (OVCAR-3): 34.9 µM (inactive)

SMILES: Cc1[nH]c(=O)nc(N(CCO)/N=C/c2ccccc2Cl)c1C(=O)Nc1cc(Cl)cc(Cl)c1
- GI50 (SF-268): 31.8 µM (inactive)
- GI50 (SF-539): 24.5 µM (inactive)
- GI50 (DMS-273): 43.8 µM (inactive)
- GI50 (NCI-H522): 23.1 µM (inactive)
- GI50 (NCI-H226): 23.1 µM (inactive)
- GI50 (SK-MEL-28): 36.1 µM (inactive)
- GI50 (DMS-114): 41.2 µM (inactive)
- GI50 (HL-60): > 100 µM (inactive)
- GI50 (NCI-H460): 27.9 µM (inactive)
- GI50 (DLD-1): 53.1 µM (inactive)
- GI50 (M14): 67.3 µM (inactive)
- GI50 (RPMI-8226): 40.2 µM (inactive)
- GI50 (786-0): 20.1 µM (inactive)
- GI50 (RXF 631): 29.2 µM (inactive)
- GI50 (HOP-92): 23.9 µM (inactive)
- GI50 (CAKI-1): 45.4 µM (inactive)
- GI50 (SK-OV-3): 20.4 µM (inactive)
- GI50 (LXFL 529): 35.2 µM (inactive)
- GI50 (HCT-116): 23 µM (inactive)
- GI50 (XF498): > 100 µM (inactive)
- GI50 (ACHN): 29.2 µM (inactive)
- GI50 (M19-MEL): > 100 µM (inactive)
- GI50 (K562): 37.3 µM (inactive)
- GI50 (HOP-62): 26.5 µM (inactive)
- GI50 (SK-MEL-2): 48.9 µM (inactive)
- GI50 (CCRF-CEM): 64.1 µM (inactive)
- GI50 (SN12C): 43.7 µM (inactive)
- GI50 (HCT-15): > 100 µM
- GI50 (MOLT-4): 77.3 µM (inactive)
- GI50 (A498): 24.6 µM (inactive)
- GI50 (NCI-H23): 34.9 µM (inactive)
- GI50 (HCC 2998): 86.5 µM (inactive)
- GI50 (UO-31): 43.4 µM (inactive)
- GI50 (Malme-3M): > 10 µM (inactive)
- GI50 (SR): 46.1 µM (inactive)
- GI50 (SNB-75): 17.7 µM (inactive)
- GI50 (COLO 205): > 100 µM (inactive)
- GI50 (IGROV-1): > 100 µM (inactive)
- GI50 (UACC-62): > 100 µM (inactive)
- GI50 (OVCAR-4): 31.6 µM (inactive)

SMILES: C/C(CC(=O)Nc1ccc(C)c(C)c1)=N\NC(N)=S
- GI50 (SF-268): > 100 µM (inactive)
- GI50 (SF-539): > 100 µM (inactive)
- GI50 (DMS-273): > 100 µM (inactive)
- GI50 (SF-295): > 100 µM (inactive)
- GI50 (NCI-H522): > 100 µM (inactive)
- GI50 (NCI-H226): > 100 µM (inactive)
- GI50 (SK-MEL-28): > 100 µM (inactive)
- GI50 (DMS-114): > 100 µM (inactive)
- GI50 (HL-60): > 100 µM (inactive)
- GI50 (NCI-H460): > 100 µM (inactive)
- GI50 (DLD-1): > 100 µM (inactive)
- GI50 (HT-29): > 100 µM (inactive)
- GI50 (M14): > 100 µM (inactive)
- GI50 (RPMI-8226): > 100 µM (inactive)
- GI50 (786-0): > 100 µM (inactive)
- GI50 (RXF 631): > 100 µM (inactive)
- GI50 (HOP-92): > 100 µM (inactive)
- GI50 (UACC-257): > 100 µM (inactive)
- GI50 (SNB-78): > 100 µM (inactive)
- GI50 (SK-OV-3): > 100 µM (inactive)
- GI50 (OVCAR-5): > 100 µM (inactive)
- GI50 (LXFL 529): > 100 µM (inactive)
- GI50 (HCT-116): > 100 µM (inactive)
- GI50 (TK-10): > 100 µM (inactive)
- GI50 (SK-MEL-5): > 100 µM (inactive)
- GI50 (U-251): > 100 µM (inactive)
- GI50 (ACHN): > 100 µM (inactive)
- GI50 (KM12): > 100 µM (inactive)
- GI50 (K562): > 100 µM (inactive)
- GI50 (OVCAR-8): > 100 µM (inactive)
- GI50 (HOP-62): > 100 µM (inactive)
- GI50 (SK-MEL-2): > 100 µM (inactive)
- GI50 (KM-20L2): > 100 µM (inactive)
- GI50 (CCRF-CEM): > 100 µM (inactive)
- GI50 (LOX IMVI): > 100 µM (inactive)
- GI50 (EKVX): > 100 µM (inactive)
- GI50 (A549): > 100 µM (inactive)
- GI50 (MOLT-4): > 100 µM (inactive)
- GI50 (NCI-H23): > 100 µM (inactive)
- GI50 (RXF 393): > 100 µM (inactive)
- GI50 (HCC 2998): > 100 µM (inactive)
- GI50 (UO-31): > 100 µM (inactive)
- GI50 (Malme-3M): > 100 µM (inactive)
- GI50 (SW-620): > 100 µM (inactive)
- GI50 (SNB-75): > 100 µM (inactive)
- GI50 (COLO 205): > 100 µM (inactive)
- GI50 (IGROV-1): > 100 µM (inactive)
- GI50 (UACC-62): > 100 µM (inactive)
- GI50 (OVCAR-3): > 100 µM (inactive)
